From patent US20090137580A1, “Fused Heterocyclic Derivatives and Use Thereof” (Takeda Pharmaceutical Company Limited, priority 2005, published 2009)

Key:
[1] = biological target: T1, PDGFRbeta Receptor Kinase (PDGFRbeta) (Homo sapiens, UniProt P09619); experiment: Determination of PDGFRbeta receptor kinase (PDGFRbeta) inhibitory activity (alpha screen); assay type: biochemical; conditions: PDGFRbeta intracellular domain protein, 25 μM ATP buffer; read-out: IC50 value (PDGFRbeta kinase inhibition)
T1 construct: PDGFRbeta intracellular domain protein (UPSTATE); purchased UPSTATE
T1 sequence (P09619 554-1106 limits assumed): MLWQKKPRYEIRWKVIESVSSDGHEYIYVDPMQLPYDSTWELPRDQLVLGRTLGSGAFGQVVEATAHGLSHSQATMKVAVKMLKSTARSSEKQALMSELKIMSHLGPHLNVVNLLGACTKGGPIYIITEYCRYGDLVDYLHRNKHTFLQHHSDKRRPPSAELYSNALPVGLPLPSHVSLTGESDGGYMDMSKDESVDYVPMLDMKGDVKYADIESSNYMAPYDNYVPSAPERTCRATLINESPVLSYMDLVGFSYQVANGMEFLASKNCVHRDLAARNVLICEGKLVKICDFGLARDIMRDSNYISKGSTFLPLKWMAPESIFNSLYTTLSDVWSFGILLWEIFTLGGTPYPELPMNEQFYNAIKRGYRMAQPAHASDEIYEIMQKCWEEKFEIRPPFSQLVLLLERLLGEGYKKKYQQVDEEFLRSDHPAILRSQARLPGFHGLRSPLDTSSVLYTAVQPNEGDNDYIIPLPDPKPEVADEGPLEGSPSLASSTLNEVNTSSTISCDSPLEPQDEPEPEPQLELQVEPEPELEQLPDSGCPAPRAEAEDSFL
Description: The test compound dissolved in dimethyl sulfoxide (DMSO) was diluted with a buffer (50 mM Tris-HCl, pH 7.5, 5 mM MgCl2, 5 mM MnCl2, 2 mM dithiothreitol, 0.01% Tween-20). A buffer (10 μl) containing 125 ng/ml PDGFRbeta intracellular domain protein (UPSTATE) and 250 ng/ml biotin-labeled polypeptide biotinyl-poly-Glu:Tyr (4:1) (CIS Bio International) was added to the compound solution (5 μl). At 5 min after mixing a kinase enzyme, the compound and a biotin-labeled polypeptide, a buffer (10 μl) containing 25 μM ATP was added to the obtained mixture, the mixture was allowed to react at 25° C. for 30 min. Then, 25 μl of a stop solution (100 mM EDTA·2 sodium salt, 62.5 mM HEPES buffer (pH 7.4), 250 mM NaCl, 0.1% bovine serum albumin, 10 μg/ml Streptavidin Donor beads: PerkinElmer for alpha screen assay, 10 μg/ml Anti-phosphotyrosine (P-Tyr-66) Acceptor beads: PerkinElmer for alpha screen assay) was added to quench the reaction. The reaction solution was stood at 25° C. for 16 hr, and the count was measured using a plate reader·Fusion™ (manufactured by PerkinElmer). The kinase inhibitory rate (%) of the test compound was calculated by the following formula.
Inhibitory rate(%)=(1−(count of test compound−blank)÷(control−blank))×100
wherein the count of the solution reacted without addition of the compound is “control” and the count of the solution without addition of the compound and ATP is “blank”.

[2] = biological target: T2, VEGF Receptor 2 Kinase (VEGFR2) (Homo sapiens, UniProt P35968); experiment: Determination of VEGF receptor 2 kinase (VEGFR2) inhibitory activity (alpha screen); assay type: biochemical; conditions: VEGFR2 intracellular domain protein, 25 μM ATP buffer, read-out: inhibitory rate (kinase inhibitory rate of VEGFR2)
T2 construct: made in house; host or cells: SF-21 insect cells, recombinant baculovirus BAC-VEGFR2 (pFASTBAC1)
T2 sequence (P35968 786-1356 limits assumed): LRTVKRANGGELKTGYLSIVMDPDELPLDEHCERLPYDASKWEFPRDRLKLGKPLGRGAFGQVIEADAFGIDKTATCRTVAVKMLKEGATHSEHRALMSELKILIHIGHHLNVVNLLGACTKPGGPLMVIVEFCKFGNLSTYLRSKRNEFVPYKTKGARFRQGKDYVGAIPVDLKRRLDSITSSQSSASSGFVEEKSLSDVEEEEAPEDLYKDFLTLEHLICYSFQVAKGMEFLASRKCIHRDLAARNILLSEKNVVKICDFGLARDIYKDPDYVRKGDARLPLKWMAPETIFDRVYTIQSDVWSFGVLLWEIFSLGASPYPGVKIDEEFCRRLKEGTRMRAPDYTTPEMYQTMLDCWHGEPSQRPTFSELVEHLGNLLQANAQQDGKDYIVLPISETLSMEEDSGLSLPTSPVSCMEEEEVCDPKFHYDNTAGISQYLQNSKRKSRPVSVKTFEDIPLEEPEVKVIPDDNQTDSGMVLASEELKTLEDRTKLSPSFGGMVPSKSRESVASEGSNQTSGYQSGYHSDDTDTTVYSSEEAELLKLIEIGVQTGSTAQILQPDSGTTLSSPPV
Description: For cloning of human VEGF receptor 2 (hereinafter to be abbreviated as VEGFR2) gene, PCR was performed using cDNA Libraries Human Placenta (Clontech) as a template. The primer used for PCR was prepared by, based on the information of the base sequence (Genbank Accession AF035121) of VEGFR2 gene, adding a base sequence encoding the flag peptide and a restriction enzyme recognition sequence to the base sequence (2671-4374 of Genbank Accession AF035121) encoding the VEGFR2 intracellular domain, so that a flag tag would be added to the N terminal of the protein. The primer base sequence is shown in the following.
PCR reaction was carried out using a KOD-plus kit (TOYOBO). The obtained PCR product was electrophoresed on an agarose gel (1%), and a DNA fragment amplified by PCR was recovered from the gel and digested with restriction enzymes Sal I and Sph I. The DNA after the restriction enzyme treatment was electrophoresed on an agarose gel (1%), and the obtained DNA fragment was recovered and ligated to the plasmid pFASTBAC1 (Invitrogen) digested with restriction enzymes Sal I and Sph I to give an expression plasmid pFB-VEGFR2. The base sequence of the inserted fragment was confirmed to have matched with the base sequence (2671-4374 of Genbank Accession AF035121) of the VEGFR2 intracellular domain. Furthermore, virus stock BAC-VEGFR2 of the recombinant Baculovirus was prepared using BAC-TO-BAC Baculovirus Expression System (Invitrogen).
SF-21 cells were inoculated into 1 L of Sf-900IISFM medium (Invitrogen) containing 10% fetal calf serum (trace), 50 mg/L Gentamicin (Invitrogen) and 0.1% Pluronic F-68 (Invitrogen) at 1×10^6 cells/ml, and shake culture was performed using a 2 L Erlenmeyer flask at 27° C., 100 rpm. After 24 hr of culture, recombinant Baculovirus BAC-VEGFR2 (13.4 mL) was added, and the culture was continued for 3 days. The culture medium was centrifuged at 2,000 rpm for 5 min to give virus-infected cells. The infected cells were washed with phosphate buffered saline (Invitrogen), centrifuged under the same conditions, and preserved at −80° C. The cryopreserved cells were thawed in ice, suspended in 30 mL of buffer A (Tris buffer, pH 7.4, containing 20% glycerol and 0.15M NaCl (50 mM)) supplemented with Complete Protease Inhibitor (Boehringer), and disrupted three times using a polytron homogenizer (Kinematica) at 20,000 rpm, 30 sec. The disrupt was clarified by centrifugation at 40,000 rpm, 30 min and filtered through a 0.45 μm filter. The filtrate was passed through a column packed with Anti-FLAG M2 Affinity Gel (Sigma Ltd., 4 mL) at a flow rate of about 0.5 mL/min. The column was washed with buffer A and eluted with buffer A containing 100 μg/mL FLAG peptide. The eluate was concentrated by Vivaspin 20 (Viva Science) having a fraction molecular weight of 30K. The concentrate was applied to NAP™ 25 column (Amersham Biosciences) equilibrated with buffer A for buffer exchange. The fractions containing the VEGFR2 intracellular domain protein were collected, glycerol was added to the final concentration of 50% and the fractions cryopreserved at ˜80° C.
The test compound dissolved in dimethyl sulfoxide (DMSO) was diluted with a buffer (50 mM Tris-HCl, pH 7.5, 5 mM MgCl2, 5 mM MnCl2, 2 mM dithiothreitol, 0.01% Tween-20). A buffer (10 μl) containing 50 ng/ml VEGFR2 intracellular domain protein and 250 ng/ml biotin-labeled polypeptide biotinyl-poly-Glu:Tyr (4:1) (CIS Bio International) was added to the compound solution (5 μl). A buffer (10 μl) containing 25 μM ATP was added to the obtained mixture, the mixture was allowed to react at 25° C. for 5 min. Then, 25 μl of a stop solution (100 mM EDTA·2 sodium salt, 62.5 mM HEPES buffer (pH 7.4), 250 mM NaCl, 0.1% bovine serum albumin, 10 μg/ml Streptavidin Donor beads: PerkinElmer for alpha screen assay, 10 μg/ml Anti-phosphotyrosine (P-Tyr-100) Acceptor beads: PerkinElmer for alpha screen assay) was added to quench the reaction. […]

Row | Structure (SMILES) | IC50 [1] [nM] | inhibition at 1 µM [2] [%]
1 | Cn1ccc2ncnc(Oc3ccc(NC(=O)Nc4cccc(C(F)(F)F)c4)c(Cl)c3)c21 [Example 15, N-{2-chloro-4-[(5-methyl-5H-pyrrolo[3,2-d]pyrimidin-4-yl)oxy]phenyl}-N′-[3-(trifluoromethyl)phenyl]urea] | ≤ 500 | ≥ 90
2 | CCn1ccc2ncnc(Oc3ccc(NC(=O)Nc4cccc(C(F)(F)F)c4)c(Cl)c3)c21 [Example 47, N-{2-chloro-4-[(5-ethyl-5H-pyrrolo[3,2-d]pyrimidin-4-yl)oxy]phenyl}-N′-[3-(trifluoromethyl)phenyl]urea] | ≤ 500 | ≥ 90
3 | Cc1cc(Oc2ncnc3ccn(C)c23)ccc1NC(=O)Nc1cccc(C(F)(F)F)c1 [Example 41, N-{2-methyl-4-[(5-methyl-5H-pyrrolo[3,2-d]pyrimidin-4-yl)oxy]phenyl}-N′-[3-(trifluoromethyl)phenyl]urea] | ≤ 500 | ≥ 90
4 | Cn1ccc2ncnc(Oc3ccc(NC(=O)Nc4cccc(OC(F)(F)F)c4)c(Cl)c3)c21 [Example 20, N-{2-chloro-4-[(5-methyl-5H-pyrrolo[3,2-d]pyrimidin-4-yl)oxy]phenyl}-N′-[3-(trifluoromethoxy)phenyl]urea] | ≤ 500 | ≥ 90
